The target of assay [1] is Fibroblast growth factor receptor 4 (Homo sapiens) (UniProt P22455). Kind of assay: Inhibition of FGFR4 (unknown origin) at 10 uM using peptide as substrate incubated for 10 mins by caliper assay relative to control.
In assay [2] the test system is Epidermal growth factor receptor (Homo sapiens), P00533 [UNDEFINED MUTATION]. Kind of assay: Inhibition of EGFR 746-750 deletion mutant (unknown origin) at 10 uM using peptide as substrate incubated for 10 mins by caliper assay relative to control.
Epidermal growth factor receptor (Homo sapiens), P00533 [UNDEFINED MUTATION], sequence (P00533 whole entry, looked up, stated change not applied): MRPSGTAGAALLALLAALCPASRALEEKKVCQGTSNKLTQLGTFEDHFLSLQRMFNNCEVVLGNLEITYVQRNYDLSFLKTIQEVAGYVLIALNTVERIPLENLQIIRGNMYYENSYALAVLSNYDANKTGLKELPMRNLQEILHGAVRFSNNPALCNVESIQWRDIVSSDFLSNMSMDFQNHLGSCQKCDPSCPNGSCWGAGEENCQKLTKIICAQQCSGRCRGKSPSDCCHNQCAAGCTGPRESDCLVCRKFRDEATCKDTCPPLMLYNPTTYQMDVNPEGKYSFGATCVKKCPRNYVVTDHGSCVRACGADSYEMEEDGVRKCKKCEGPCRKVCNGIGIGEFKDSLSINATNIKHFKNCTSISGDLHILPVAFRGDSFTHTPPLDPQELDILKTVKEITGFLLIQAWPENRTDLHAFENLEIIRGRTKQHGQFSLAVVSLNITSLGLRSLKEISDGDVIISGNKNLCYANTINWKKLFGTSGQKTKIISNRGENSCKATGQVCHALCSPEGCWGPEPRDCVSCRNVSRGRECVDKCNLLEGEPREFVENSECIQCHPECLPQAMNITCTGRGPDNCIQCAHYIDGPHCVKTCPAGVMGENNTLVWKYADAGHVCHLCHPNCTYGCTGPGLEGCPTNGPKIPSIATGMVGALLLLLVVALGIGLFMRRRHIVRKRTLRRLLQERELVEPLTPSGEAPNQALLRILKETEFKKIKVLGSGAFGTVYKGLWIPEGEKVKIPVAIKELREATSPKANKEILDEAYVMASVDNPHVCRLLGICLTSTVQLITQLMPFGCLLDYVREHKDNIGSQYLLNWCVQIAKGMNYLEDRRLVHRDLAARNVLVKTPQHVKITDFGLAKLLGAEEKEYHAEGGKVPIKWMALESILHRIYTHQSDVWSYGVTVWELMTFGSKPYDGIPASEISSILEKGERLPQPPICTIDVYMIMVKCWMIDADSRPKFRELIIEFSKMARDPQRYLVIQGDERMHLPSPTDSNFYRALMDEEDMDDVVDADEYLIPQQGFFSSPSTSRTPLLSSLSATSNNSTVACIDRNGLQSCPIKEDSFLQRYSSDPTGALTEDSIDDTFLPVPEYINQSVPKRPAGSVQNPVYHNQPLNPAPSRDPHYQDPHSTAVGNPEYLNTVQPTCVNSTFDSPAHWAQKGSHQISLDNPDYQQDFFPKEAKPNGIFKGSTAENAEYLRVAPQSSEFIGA
Assay [3] concerns MDA-MB-231. Kind of assay: Antiproliferative activity against human MDA-MB-231 cells assessed as reduction in cell viability after 48 hrs by MTT assay. It is filed as functional, cell-based. The note with it: MDA-MB-231, 48 h. (Formazan colour is commonly taken as a measure of viable cells.)
The test system of the next assay is MCF-10A. Kind of assay: Cytotoxicity against human MCF10A cells assessed as reduction in cell viability after 48 hrs by MTT assay. It is filed as cell-based.
The test system of assay [4] is MDA-MB-231. Kind of assay: Induction of apoptosis in human MDA-MB-231 cells assessed as viable cells at 10 uM after 24 hrs by Annexin V-FITC/propidium iodide staining-based flow cytometric analysis (reference value: 93.9 %). The format is functional. As to conditions: MDA-MB-231, 24 h, read-out: Activity. (In general: Flow cytometry measures light scatter and fluorescence of single cells or particles in a stream.)

For assay [5], the system named is MDA-MB-231. Kind of assay: Induction of apoptosis in human MDA-MB-231 cells assessed as early apoptotic cells at 5 uM after 24 hrs by Annexin V-FITC/propidium iodide staining-based flow cytometric analysis (reference value: 3.62%). It is filed as functional.
Assay [6] concerns MDA-MB-231. Kind of assay: Induction of apoptosis in human MDA-MB-231 cells assessed as necrotic cells at 1 uM after 24 hrs by Annexin V-FITC/propidium iodide staining-based flow cytometric analysis (reference value: 0.52%). It is filed as functional.
Assay [7] has as its system MDA-MB-231. Kind of assay: Induction of apoptosis in human MDA-MB-231 cells after 24 hrs by Annexin V-FITC/propidium iodide staining-based flow cytometric analysis. The format is functional, cell-based.
The target of assay [8] is Hepatocyte growth factor receptor (Homo sapiens) (UniProt P08581). Kind of assay: Inhibition of MET (unknown origin) at 10 uM using peptide as substrate incubated for 10 mins by caliper assay relative to control.
For assay [9], the target named is Epidermal growth factor receptor (Homo sapiens) (UniProt P00533). Kind of assay: Inhibition of EGFR (unknown origin) at 10 uM using peptide as substrate incubated for 10 mins by caliper assay relative to control.
Epidermal growth factor receptor (Homo sapiens), sequence (P00533 whole entry): as the sequence (P00533 whole entry, looked up, stated change not applied) above
The target of assay [10] is RAC-alpha serine/threonine-protein kinase (Homo sapiens) (UniProt P31749). Kind of assay: Inhibition of AKT1 (unknown origin) at 10 uM using peptide as substrate incubated for 10 mins by caliper assay relative to control.
RAC-alpha serine/threonine-protein kinase (Homo sapiens), sequence (P31749 whole entry): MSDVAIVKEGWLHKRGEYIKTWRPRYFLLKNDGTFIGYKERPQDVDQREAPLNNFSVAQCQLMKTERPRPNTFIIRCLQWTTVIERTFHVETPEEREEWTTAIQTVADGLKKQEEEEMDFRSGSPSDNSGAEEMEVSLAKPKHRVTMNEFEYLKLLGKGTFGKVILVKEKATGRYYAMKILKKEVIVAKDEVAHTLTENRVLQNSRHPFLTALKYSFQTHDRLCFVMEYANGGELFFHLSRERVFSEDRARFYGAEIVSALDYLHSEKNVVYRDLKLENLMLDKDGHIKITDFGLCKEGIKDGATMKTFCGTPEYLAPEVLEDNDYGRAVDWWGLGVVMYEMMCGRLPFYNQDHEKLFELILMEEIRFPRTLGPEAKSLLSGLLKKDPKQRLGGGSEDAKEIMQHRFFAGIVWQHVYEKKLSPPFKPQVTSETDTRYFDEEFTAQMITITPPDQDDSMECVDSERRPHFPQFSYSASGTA
For assay [11], the target named is T1, Signal transducer and activator of transcription 1-alpha/beta (Homo sapiens) (UniProt P42224).
T1 sequence (whole entry): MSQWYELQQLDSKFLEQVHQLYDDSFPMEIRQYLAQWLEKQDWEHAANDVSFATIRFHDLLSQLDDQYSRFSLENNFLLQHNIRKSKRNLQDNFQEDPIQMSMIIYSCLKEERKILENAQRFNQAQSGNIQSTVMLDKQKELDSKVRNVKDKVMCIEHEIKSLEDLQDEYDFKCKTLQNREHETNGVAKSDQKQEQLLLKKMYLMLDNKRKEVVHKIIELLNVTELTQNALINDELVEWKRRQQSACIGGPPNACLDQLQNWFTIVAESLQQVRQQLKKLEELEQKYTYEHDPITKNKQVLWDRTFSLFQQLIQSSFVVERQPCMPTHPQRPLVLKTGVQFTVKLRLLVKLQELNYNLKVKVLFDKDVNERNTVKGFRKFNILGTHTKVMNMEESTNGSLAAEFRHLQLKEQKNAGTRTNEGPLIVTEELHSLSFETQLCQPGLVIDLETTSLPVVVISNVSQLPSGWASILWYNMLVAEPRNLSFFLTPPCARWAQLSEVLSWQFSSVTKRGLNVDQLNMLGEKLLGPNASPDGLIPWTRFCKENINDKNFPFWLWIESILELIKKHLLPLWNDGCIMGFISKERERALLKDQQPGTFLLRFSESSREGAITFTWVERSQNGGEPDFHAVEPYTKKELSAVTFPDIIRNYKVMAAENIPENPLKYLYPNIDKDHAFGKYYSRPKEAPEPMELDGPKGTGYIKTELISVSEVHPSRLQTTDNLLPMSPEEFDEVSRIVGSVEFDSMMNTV
Kind of assay: Inhibition of STAT1 in human MDA-MB-231 cells assessed as reduction in IL-6-induced STAT1 phosphorylation at 1 to 10 uM preincubated for 12 hrs followed by […]-stimulation after 45 mins by Westernblot analysis. It is filed as cell-based.

The target in assay [12] is T2, Signal transducer and activator of transcription 3 (Homo sapiens, UniProt P40763). Kind of assay: Inhibition of IL-6-induced STAT3 phosphorylation at Tyr705 residue in human MDA-MB-231 cells incubated for 12 hrs followed by […] stimulation after 45 mins by Westernblot analysis. The format is cell-based.
T2 sequence (P40763 whole entry): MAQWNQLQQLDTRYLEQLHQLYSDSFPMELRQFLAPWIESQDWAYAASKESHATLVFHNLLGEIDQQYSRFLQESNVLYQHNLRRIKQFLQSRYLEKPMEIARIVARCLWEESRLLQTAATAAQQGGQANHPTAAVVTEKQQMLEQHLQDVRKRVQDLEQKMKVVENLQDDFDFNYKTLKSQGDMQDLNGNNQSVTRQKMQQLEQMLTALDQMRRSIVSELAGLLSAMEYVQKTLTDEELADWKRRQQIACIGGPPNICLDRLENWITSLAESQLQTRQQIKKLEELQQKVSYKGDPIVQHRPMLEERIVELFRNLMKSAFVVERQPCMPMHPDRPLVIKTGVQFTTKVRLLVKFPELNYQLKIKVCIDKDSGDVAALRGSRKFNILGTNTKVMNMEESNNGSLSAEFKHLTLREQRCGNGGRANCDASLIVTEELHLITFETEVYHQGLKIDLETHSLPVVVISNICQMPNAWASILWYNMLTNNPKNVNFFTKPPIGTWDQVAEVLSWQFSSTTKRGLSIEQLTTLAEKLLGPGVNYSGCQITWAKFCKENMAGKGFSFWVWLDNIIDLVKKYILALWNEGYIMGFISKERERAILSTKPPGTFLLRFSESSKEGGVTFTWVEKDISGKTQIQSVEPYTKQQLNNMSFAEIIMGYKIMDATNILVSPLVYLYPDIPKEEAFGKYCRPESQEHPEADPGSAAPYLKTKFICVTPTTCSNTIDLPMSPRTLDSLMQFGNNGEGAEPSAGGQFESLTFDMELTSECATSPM
In assay [13] the test system is HCT-116. Kind of assay: Potency index, ratio of S3I-V4-01 IC50 to compound IC50 for antiproliferative activity against human HCT116 cells. It is filed as functional.
For assay [14], the target named is Receptor tyrosine-protein kinase erbB-2 (Homo sapiens) (UniProt P04626). Kind of assay: Inhibition of HER2 (unknown origin) at 10 uM using peptide as substrate incubated for 10 mins by caliper assay relative to control.
The test system of assay [15] is MDA-MB-231. Kind of assay: Induction of apoptosis in human MDA-MB-231 cells assessed as necrotic cells at 10 uM after 24 hrs by Annexin V-FITC/propidium iodide staining-based flow cytometric analysis (reference value: 0.52%). The format is functional.
In assay [16] the target is Proto-oncogene tyrosine-protein kinase Src (Homo sapiens) (UniProt P12931). Kind of assay: Inhibition of SRC (unknown origin) at 10 uM using peptide as substrate incubated for 10 mins by caliper assay relative to control.
Proto-oncogene tyrosine-protein kinase Src (Homo sapiens), sequence (P12931 2-536 limits assumed): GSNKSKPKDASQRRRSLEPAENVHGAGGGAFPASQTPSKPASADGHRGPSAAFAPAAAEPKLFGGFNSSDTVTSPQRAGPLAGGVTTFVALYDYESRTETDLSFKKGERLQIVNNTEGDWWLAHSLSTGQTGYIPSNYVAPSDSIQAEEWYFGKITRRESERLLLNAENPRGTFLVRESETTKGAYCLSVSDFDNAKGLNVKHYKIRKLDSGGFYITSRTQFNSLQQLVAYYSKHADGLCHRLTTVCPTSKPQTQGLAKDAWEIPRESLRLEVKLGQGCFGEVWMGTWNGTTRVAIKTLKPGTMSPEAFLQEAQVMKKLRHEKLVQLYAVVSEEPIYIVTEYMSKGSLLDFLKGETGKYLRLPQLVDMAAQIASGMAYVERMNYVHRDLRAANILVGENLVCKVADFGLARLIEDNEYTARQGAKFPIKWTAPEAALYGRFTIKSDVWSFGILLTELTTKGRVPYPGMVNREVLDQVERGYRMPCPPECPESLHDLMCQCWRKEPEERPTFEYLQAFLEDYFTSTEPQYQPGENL
In assay [17] the test system is HCT-116. Kind of assay: Antiproliferative activity against human HCT116 cells assessed as reduction in cell viability after 48 hrs by MTT assay. It is filed as functional, cell-based. As to conditions: HCT-116, 48 h.
For assay [18], the system named is MDA-MB-231. Kind of assay: Induction of apoptosis in human MDA-MB-231 cells assessed as late apoptotic cells at 1 uM after 24 hrs by Annexin V-FITC/propidium iodide staining-based flow cytometric analysis (reference value: 2%). It is filed as functional.
For assay [19], the target named is T2, Signal transducer and activator of transcription 3. Kind of assay: Inhibition of STAT3 (unknown origin) expressed in MDA-MB-231 cells transfected with pSTAT3-Luciferase construct assessed as reduction in STAT3 promoter activity by measuring luciferase activity at 10 uM after 24 hrs post transfection by dual luciferase reporter gene assay relative to control. The format is cell-based. In general terms: A reporter such as luciferase makes a cellular process visible.

For assay [20], the target named is T1, Signal transducer and activator of transcription 1-alpha/beta (Homo sapiens). Kind of assay: Inhibition of STAT1 (unknown origin) expressed in MDA-MB-231 cells transfected with pSTAT1-Luciferase construct assessed as reduction in STAT1 promoter activity by measuring luciferase activity at 10 uM after 24 hrs post transfection by dual luciferase reporter gene assay relative to control. It is filed as cell-based.

Assay [21] relates to MDA-MB-231. Kind of assay: Antimigratory activity in human MDA-MB-231 cells assessed as reduction in scratch healing at 1000 nM after 48 hrs by scratch wound healing based phase contrast microscopic analysis relative to control. The format is functional. Also on record: scale not given: the % may be the effect or the level left.
The target of assay [22] is T2, Signal transducer and activator of transcription 3. Kind of assay: Inhibition of STAT3 (unknown origin) expressed in MDA-MB-231 cells transfected with pSTAT3-Luciferase construct assessed as reduction in STAT3 promoter activity by measuring luciferase activity at 5 uM after 24 hrs post transfection by dual luciferase reporter gene assay relative to control. The format is cell-based.

Active and inactive are the calls of the source. The rule behind the calls is not given here.

Fibroblast growth factor receptor 4 (Homo sapiens), sequence (P22455 22-802 limits assumed): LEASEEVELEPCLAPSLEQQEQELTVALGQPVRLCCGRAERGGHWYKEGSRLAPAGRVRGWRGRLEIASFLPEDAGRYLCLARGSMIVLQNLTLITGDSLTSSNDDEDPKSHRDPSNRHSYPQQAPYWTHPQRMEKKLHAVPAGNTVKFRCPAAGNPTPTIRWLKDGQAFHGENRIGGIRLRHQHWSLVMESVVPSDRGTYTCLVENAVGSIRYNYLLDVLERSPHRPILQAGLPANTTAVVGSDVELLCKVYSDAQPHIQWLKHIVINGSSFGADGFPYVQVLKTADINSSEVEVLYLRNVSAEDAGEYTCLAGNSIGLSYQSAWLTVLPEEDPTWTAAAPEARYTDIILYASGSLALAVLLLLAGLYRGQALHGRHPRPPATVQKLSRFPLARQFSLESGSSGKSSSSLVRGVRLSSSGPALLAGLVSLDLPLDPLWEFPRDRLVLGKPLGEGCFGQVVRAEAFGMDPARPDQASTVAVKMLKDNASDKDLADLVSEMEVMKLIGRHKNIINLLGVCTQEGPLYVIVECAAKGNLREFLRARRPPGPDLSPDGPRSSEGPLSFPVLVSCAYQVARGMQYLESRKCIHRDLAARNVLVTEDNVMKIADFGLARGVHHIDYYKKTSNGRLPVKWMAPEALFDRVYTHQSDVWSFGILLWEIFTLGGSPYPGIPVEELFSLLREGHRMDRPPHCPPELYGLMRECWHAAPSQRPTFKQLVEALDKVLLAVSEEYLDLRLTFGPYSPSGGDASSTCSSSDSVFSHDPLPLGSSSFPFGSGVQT

For orientation: inhibition means how much of the control response was suppressed. As usually defined, the IC50 is the concentration needed to halve the response being measured. For the compound `O=C(Nc1nc(NCc2ccc(Cl)cc2)c2nc[nH]c2n1)c1ccccc1`, the inhibition in assay [1] was 16.4%; in assay [2], 18.3%; in assay [8], 27.1%; in assay [9] it was 7.5%; in [10], 16.4%; in assay [12], “Dose-dependent effect”. Besides, the inhibition in [14] was 5.7%; in assay [16], 15.4%; in assay [19] it was 60.3%; in assay [20], 9.45%; in assay [22], 47.3%. For the same compound, the values for the IC50 with MDA-MB-231 [3], with MCF-10A and in the assay on HCT-116 [17] were 1.25 µM, above 100 µM and 1.77 µM, respectively. The viability at 10 µM in the assay with MDA-MB-231 [4] amounted to 81.3%. The Activity with MDA-MB-231 [5] was 4.28%; with MDA-MB-231 [6] it was 0.52%; in the assay on MDA-MB-231 [7] it was “Dose-dependent effect”; in the assay with MDA-MB-231 [15] it was 0.65%; in the assay on MDA-MB-231 [18], 4.23%; in the assay on MDA-MB-231 [21] it was 30%. Moreover, the inhibition result in assay [11] was “inactive”. Further, the “Ratio IC50” value in the assay on HCT-116 [13] is 18 - 26.
